Test results reported in BindingDB's records for doi:10.1021/jm0303857 (Johnson & Johnson Pharmaceutical, 2005).
Where “and” joins values, the source holds several entries; their conditions need not be identical. Equal entries are not always repeated.

Key:
[1] = molecular target: T1, Serine protease 1 (Bos taurus, UniProt P00760); test: Enzyme Inhibition Assay
T1 sequence (P00760 whole entry): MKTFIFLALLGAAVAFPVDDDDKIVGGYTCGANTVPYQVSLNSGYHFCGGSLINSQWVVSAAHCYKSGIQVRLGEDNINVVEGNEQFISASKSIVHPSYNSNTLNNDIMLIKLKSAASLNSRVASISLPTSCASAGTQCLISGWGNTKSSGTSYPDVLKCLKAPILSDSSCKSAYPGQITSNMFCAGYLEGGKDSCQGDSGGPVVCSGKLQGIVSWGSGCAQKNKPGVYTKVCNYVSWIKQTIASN

[2] = molecular target: Prothrombin (Homo sapiens, UniProt P00734); test: Enzyme Inhibition Assay
Protocol: Thrombin-catalyzed hydrolysis rates were measured spectrophotometrically using human alpha-thrombin, a chromogenic substrate in aqueous buffer, and a microplate reader. […] The IC50 values were determined by fixing the enzyme and substrate concentrations and varying the inhibitor concentration. Ki values were determined by fixing the enzyme and inhibitor concentrations and varying the substrate concentration. Michaelis-Menton kinetics was applied to the initial reaction slopes using the program K.Cat (Bio Metallics Inc.).

| Compound | Ki [1] | IC50 [2] | Ki [2] | further results |
| --- | --- | --- | --- | --- |
| CN[C@H](Cc1ccccc1)C(=O)N1CCC[C@H]1C(=O)NC(CCCN=C(N)N)C(=O)c1nccs1 (stereo partly drawn) [(2S)-N-[5-carbamimidamido-1-oxo-1-(1,3-thiazol-2-yl)pentan-2-yl]-1-[(2R)-2-(methylamino)-3-phenylpropanoyl]pyrrolidine-2-carboxamide] | 1.2 nM | 19 nM | 2.1 nM | – |
| NC(N)=NCCCC(NC(=O)[C@@H]1CCCN1C(=O)C(N)(c1ccccc1)c1ccccc1)C(=O)c1nc2ccccc2s1 (stereo partly drawn) [(2S)-1-(2-amino-2,2-diphenylacetyl)-N-[1-(1,3-benzothiazol-2-yl)-5-carbamimidamido-1-oxopentan-2-yl]pyrrolidine-2-carboxamide] | 1.8 nM | – | – | IC50 ([2]; pH 7.4, 37 °C): 15 nM; Ki ([2]; pH 7.4, 37 °C): 2.1 nM |
| N=C(N)NCCCCC(=O)c1nc2ccccc2s1 [3-[5-(1,3-benzothiazol-2-yl)-5-oxopentyl]guanidine] | > 100000 nM | > 300000 nM | – | – |
| CN[C@H](Cc1ccc(F)cc1)C(=O)N1CCC[C@H]1C(=O)NC(CCCN=C(N)N)C(=O)c1nc2ccccc2s1 (stereo partly drawn) [(2S)-N-[1-(1,3-benzothiazol-2-yl)-5-carbamimidamido-1-oxopentan-2-yl]-1-[(2R)-3-(4-fluorophenyl)-2-(methylamino)propanoyl]pyrrolidine-2-carboxamide] | 3.3 nM | – | – | – |
| CN[C@H](Cc1ccccc1)C(=O)N1CCC[C@H]1C(=O)N[C@H](CC(=O)c1nc2ccccc2s1)C1CCC(N)CC1 (stereo partly drawn) [(2S)-N-[(1R)-1-(4-aminocyclohexyl)-3-(1,3-benzothiazol-2-yl)-3-oxopropyl]-1-[(2R)-2-(methylamino)-3-phenylpropanoyl]pyrrolidine-2-carboxamide] | – | > 100000 nM | – | IC50 [1]: 58000 nM |
| NC(N)=NCCCC(NC(=O)[C@@H]1CCCN1C(=O)C1(O)c2ccccc2-c2ccccc21)C(=O)c1nc2ccccc2s1 (stereo partly drawn) [(2S)-N-[1-(1,3-benzothiazol-2-yl)-5-carbamimidamido-1-oxopentan-2-yl]-1-[(9-hydroxy-9H-fluoren-9-yl)carbonyl]pyrrolidine-2-carboxamide] | 2 nM | 95 nM | 3.1 nM | – |
| CN[C@H](Cc1ccccc1)C(=O)N1CCC[C@H]1C(=O)NC(CCCN=C(N)N)C(=O)c1ccccn1 (stereo partly drawn) [(2S)-N-[5-carbamimidamido-1-oxo-1-(pyridin-2-yl)pentan-2-yl]-1-[(2R)-2-(methylamino)-3-phenylpropanoyl]pyrrolidine-2-carboxamide] | 73 nM | 930 nM | 85 nM | – |
| CCS(=O)(=O)N[C@H](Cc1ccccc1)C(=O)N1CCC[C@H]1C(=O)N[C@@H](C(=O)c1nc2ccccc2s1)C1CCC(N)CC1 (stereo partly drawn) [The relative stereochemistry of the cyclohexyl ring is trans] | 87 nM | 460 nM | 53 nM | – |
| CNCCCC[C@@H](NC(=O)[C@@H]1CCCN1C(=O)[C@@H](Cc1ccccc1)NC)C(=O)c1nc2ccccc2s1 [(2S)-N-[(2R)-1-(1,3-benzothiazol-2-yl)-6-(methylamino)-1-oxohexan-2-yl]-1-[(2R)-2-(methylamino)-3-phenylpropanoyl]pyrrolidine-2-carboxamide] | – | > 1000 nM | – | – |
| CN[C@@H](C(=O)N1CCC[C@H]1C(=O)N[C@@H](CCCN=C(N)N)C(=O)c1nc2ccccc2s1)C1CCCCC1 [(2S)-N-[(2S)-1-(1,3-benzothiazol-2-yl)-5-carbamimidamido-1-oxopentan-2-yl]-1-[(2R)-2-cyclohexyl-2-(methylamino)acetyl]pyrrolidine-2-carboxamide] | 1.2 nM | – | – | IC50 ([2]; pH 7.4, 37 °C): 5.3 nM; Ki ([2]; pH 7.4, 37 °C): 0.018 nM |
| CN[C@H](Cc1ccccc1)C(=O)N1CCC[C@H]1C(=O)N[C@@H](CC(=O)c1nc2ccccc2s1)C1CCC(N)CC1 (stereo partly drawn) [(2S)-N-[(1S)-1-(4-aminocyclohexyl)-3-(1,3-benzothiazol-2-yl)-3-oxopropyl]-1-[(2R)-2-(methylamino)-3-phenylpropanoyl]pyrrolidine-2-carboxamide] | – | > 100000 nM | – | IC50 [1]: 22000 nM |
| CN[C@H](Cc1ccccc1)C(=O)N1CCC[C@H]1C(=O)N[C@@H](CCCNC(=N)N)C(=O)c1cc2ccccc2s1 | – | 13000 nM | – | – |
| CN[C@H](Cc1ccccc1)C(=O)N1CCC[C@H]1C(=O)N[C@@H](Cc1ccc(C(=N)N)cc1)C(=O)c1nc2ccccc2s1 [(2S)-N-[(2S)-1-(1,3-benzothiazol-2-yl)-3-(4-carbamimidoylphenyl)-1-oxopropan-2-yl]-1-[(2R)-2-(methylamino)-3-phenylpropanoyl]pyrrolidine-2-carboxamide] | – | > 1000 nM | – | – |
| CN[C@H](Cc1ccccc1)C(=O)N1CCC[C@H]1C(=O)N[C@H](C(=O)c1nc2ccccc2s1)C1CCC(CN)CC1 (stereo partly drawn) [(2S)-N-[(1S)-1-[4-(aminomethyl)cyclohexyl]-2-(1,3-benzothiazol-2-yl)-2-oxoethyl]-1-[(2R)-2-(methylamino)-3-phenylpropanoyl]pyrrolidine-2-carboxamide] | 54 nM | 17000 nM | 920 nM | – |
| CN[C@H](Cc1ccccc1)C(=O)N1CCC[C@H]1C(=O)N[C@@H](C(=O)c1nc2ccccc2s1)C1CCC(N)CC1 (stereo partly drawn) [The relative stereochemistry of the cyclohexyl ring is trans] | 330 nM | 1900 nM | 110 nM | – |
| CN[C@H](Cc1ccccc1)C(=O)N1CCC[C@H]1C(=O)NC(CCCN=C(N)N)C(=O)c1nccn1C (stereo partly drawn) [(2S)-N-[5-carbamimidamido-1-(1-methyl-1H-imidazol-2-yl)-1-oxopentan-2-yl]-1-[(2R)-2-(methylamino)-3-phenylpropanoyl]pyrrolidine-2-carboxamide] | 5800 nM | 1500 nM | 200 nM | – |
| CN[C@H](Cc1ccccc1)C(=O)N1CCC[C@H]1C(=O)N[C@@H](CCCN=C(N)N)C(=O)c1nc2ccc(C(=O)O)cc2s1 [2-[(2S)-5-carbamimidamido-2-{[(2S)-1-[(2R)-2-(methylamino)-3-phenylpropanoyl]pyrrolidin-2-yl]formamido}pentanoyl]-1,3-benzothiazole-6-carboxylic acid] | 2.7 nM | – | – | – |
| CN[C@@H](C(=O)N1CCC[C@H]1C(=O)N[C@@H](CCCN=C(N)N)C(=O)c1nc2ccccc2s1)C(c1ccccc1)c1ccccc1 [(2S)-N-[(2S)-1-(1,3-benzothiazol-2-yl)-5-carbamimidamido-1-oxopentan-2-yl]-1-[(2R)-2-(methylamino)-3,3-diphenylpropanoyl]pyrrolidine-2-carboxamide] | – | – | – | IC50 [1]: 30 nM |
| CN[C@@H](C(=O)N1CCC[C@H]1C(=O)NC(CCCN=C(N)N)C(=O)c1nc2ccccc2s1)c1ccccc1 (stereo partly drawn) [(2S)-N-[1-(1,3-benzothiazol-2-yl)-5-carbamimidamido-1-oxopentan-2-yl]-1-[(2R)-2-(methylamino)-2-phenylacetyl]pyrrolidine-2-carboxamide] | – | – | – | IC50 [1]: 32 nM |
| CN[C@H](Cc1ccccc1)C(=O)N1CCC[C@H]1C(=O)N[C@@H](Cc1ccccc1)C(=O)c1nc2ccccc2s1 [(2S)-N-[(2S)-1-(1,3-benzothiazol-2-yl)-1-oxo-3-phenylpropan-2-yl]-1-[(2R)-2-(methylamino)-3-phenylpropanoyl]pyrrolidine-2-carboxamide] | – | > 1000 nM | – | – |
| CNCCCC[C@H](NC(=O)[C@@H]1CCCN1C(=O)[C@@H](Cc1ccccc1)NC)C(=O)c1nc2ccccc2s1 [(2S)-N-[(2S)-1-(1,3-benzothiazol-2-yl)-6-(methylamino)-1-oxohexan-2-yl]-1-[(2R)-2-(methylamino)-3-phenylpropanoyl]pyrrolidine-2-carboxamide] | – | > 1000 nM | – | – |
| NC(N)=NCCCC(NC(=O)[C@@H]1CCCN1C(=O)[C@@H](N)Cc1ccccc1)C(=O)c1nc2ccccc2s1 (stereo partly drawn) [(2S)-1-[(2S)-2-amino-3-phenylpropanoyl]-N-[1-(1,3-benzothiazol-2-yl)-5-carbamimidamido-1-oxopentan-2-yl]pyrrolidine-2-carboxamide] | – | – | – | IC50 [1]: 5.8 nM |
| CN[C@H](Cc1ccccc1)C(=O)N1CCC[C@H]1C(=O)N[C@@H](C(=O)c1nc2ccccc2s1)C1CCC(CN)CC1 (stereo partly drawn) [(2S)-N-[(1R)-1-[4-(aminomethyl)cyclohexyl]-2-(1,3-benzothiazol-2-yl)-2-oxoethyl]-1-[(2R)-2-(methylamino)-3-phenylpropanoyl]pyrrolidine-2-carboxamide] | – | > 1000 nM | – | – |
| CN[C@H](Cc1ccccc1)C(=O)N1CCC[C@H]1C(=O)NC(CCCN=C(N)N)C(=O)c1nc2ccccc2s1 (stereo partly drawn) [(2S)-N-[1-(1,3-benzothiazol-2-yl)-5-carbamimidamido-1-oxopentan-2-yl]-1-[(2R)-2-(methylamino)-3-phenylpropanoyl]pyrrolidine-2-carboxamide] | – | – | – | IC50 ([2]; pH 7.4, 37 °C): 29 nM; Ki ([2]; pH 7.4, 37 °C): 0.2 nM |
| CC(N)(Cc1ccccc1)C(=O)N1CCC[C@H]1C(=O)NC(CCCN=C(N)N)C(=O)c1nc2ccccc2s1 (stereo partly drawn) [(2S)-1-(2-amino-2-benzylpropanoyl)-N-[1-(1,3-benzothiazol-2-yl)-5-carbamimidamido-1-oxopentan-2-yl]pyrrolidine-2-carboxamide] | 3.9 nM | – | – | – |
| CN[C@H](Cc1ccccc1)C(=O)N1CCC[C@H]1C(=O)NC(CCCN=C(N)N)C(O)c1nc2ccccc2s1 (stereo partly drawn) [(2S)-N-[1-(1,3-benzothiazol-2-yl)-5-carbamimidamido-1-hydroxypentan-2-yl]-1-[(2R)-2-(methylamino)-3-phenylpropanoyl]pyrrolidine-2-carboxamide] | 180000 nM and 250000 nM | 48000 nM and 17000 nM | 5300 nM and 1600 nM | – |
